Measurements: the supplement of paper PMC10307832

Assays:
Test in all cases: relative viability (nuclei count vs DMSO), 5 days (fraction); higher = more cells survive
[1] = compound: Cc1ccc(Nc2nccc(N(C)c3ccc4c(C)n(C)nc4c3)n2)cc1S(N)(=O)=O [Pazopanib] + CC(=O)c1c(C)c2cnc(Nc3ccc(N4CCNCC4)cn3)nc2n(C2CCCC2)c1=O [Palbociclib] (partner 0.5 µM)
Procedure, shortened: (§1)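 The day after seeding in 1536-well plates, lung cancer cell lines were treated by pin tool with a single drug, or with a fixed anchor-drug dose together with five library-drug doses (not always all listed) in √10 steps. After 5 days, a combined fix-and-stain solution (final 0.05% Triton X-100, 1% formaldehyde, 1 ug/ml Hoechst) was added. Nuclei counted on 4× images gave relative viability as treated counts over vehicle counts, reported as the median of duplicate plates.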

[2] = compound: Cc1ccc(Nc2nccc(N(C)c3ccc4c(C)n(C)nc4c3)n2)cc1S(N)(=O)=O [Pazopanib] + N=C(N)NC(=N)NCCc1ccccc1 [Phenformin] (partner 250 µM)
Procedure, shortened: as §1

[3] = compound: Cc1ccc(Nc2nccc(N(C)c3ccc4c(C)n(C)nc4c3)n2)cc1S(N)(=O)=O [Pazopanib] + CCNC(=O)c1noc(-c2cc(C(C)C)c(O)cc2O)c1-c1ccc(CN2CCOCC2)cc1 [Luminespib] (partner 0.01 µM)
Procedure, shortened: as §1

[4] = compound: Cc1ccc(C(=O)Nc2ccc(CN3CCN(C)CC3)c(C(F)(F)F)c2)cc1C#Cc1cnc2cccnn12 [Ponatinib] + CS(=O)(=O)CCNCc1ccc(-c2ccc3ncnc(Nc4ccc(OCc5cccc(F)c5)c(Cl)c4)c3c2)o1 [Lapatinib] (partner 2 µM)
Procedure, shortened: as §1

Cell Line	relative viability ([1]; first compound 0.1 µM)	relative viability ([1]; first compound 0.3162 µM)	relative viability ([1]; first compound 1 µM)	relative viability ([2]; first compound 0.01 µM)	relative viability ([2]; first compound 0.03162 µM)	relative viability ([2]; first compound 0.1 µM)	relative viability ([2]; first compound 0.3162 µM)	relative viability ([2]; first compound 1 µM)	relative viability ([3]; first compound 0.01 µM)	relative viability ([3]; first compound 0.03162 µM)	relative viability ([3]; first compound 0.1 µM)	relative viability ([3]; first compound 0.3162 µM)	relative viability ([3]; first compound 1 µM)	relative viability ([1]; first compound 0.01 µM)	relative viability ([1]; first compound 0.03162 µM)	relative viability ([4]; first compound 0.006325 µM)	relative viability ([4]; first compound 0.06325 µM)	relative viability ([4]; first compound 0.2 µM)	relative viability ([4]; first compound 0.002 µM)
NCI-H1648	0.229	0.281	0.279	–	–	–	–	–	–	–	–	–	–	–	–	–	–	–	–
NCI-H1395	0.659	0.6	0.625	0.384	0.441	0.454	0.511	0.51	0.566	0.588	0.642	0.781	0.62	0.572	0.647	0.888	0.782	0.753	–
NCI-H2347	0.406	0.449	0.498	0.218	0.385	0.38	0.468	0.377	0.299	0.453	0.898	0.309	0.471	0.422	0.452	0.908	0.94	0.93	0.951
HCC-366	0.449	0.386	0.353	0.566	0.642	0.547	0.608	0.638	–	–	–	–	–	0.36	0.422	1.01	1.08	1.01	1.01
201T	0.343	0.37	0.412	0.444	0.425	0.438	0.455	0.462	0.996	1.1	1.07	1.06	1.08	0.332	0.356	1.03	1.09	1.02	1.04
HCC-827	0.516	0.444	0.471	0.46	0.466	0.374	0.426	0.414	0.369	0.778	0.747	0.603	0.46	0.558	0.456	0.186	0.202	0.184	0.214
NCI-H650	0.355	0.337	0.315	0.42	0.473	0.438	0.466	0.444	0.682	0.773	0.669	0.813	0.735	0.344	0.381	0.835	0.819	0.854	0.886
NCI-H2023	0.456	0.38	0.434	0.421	0.43	0.398	0.444	0.434	0.781	0.77	0.652	0.613	0.883	0.36	0.412	0.861	0.958	0.642	0.81
NCI-H596	–	–	–	–	0.916	0.732	0.879	0.963	–	1.05	1.02	0.908	1.19	–	–	0.898	0.905	0.748	1.09
SK-LU-1	0.411	0.425	0.455	0.505	0.627	0.537	0.571	0.575	0.222	0.221	0.175	0.22	0.232	0.393	0.389	0.858	0.864	0.741	0.636
A-427	0.476	0.554	0.526	0.309	0.4	0.286	0.332	0.288	1.08	1.18	0.786	1.02	1.19	0.536	0.565	0.96	1.05	0.98	1.05
NCI-H460	0.122	0.0783	0.262	0.578	0.546	0.525	0.548	0.562	0.0281	0.0326	0.033	0.0276	0.0432	0.212	0.287	0.853	1.08	0.876	0.942
NCI-H1703	–	–	–	–	–	–	–	–	–	–	–	–	–	–	–	0.787	0.339	0.313	0.989
NCI-H1792	0.598	0.649	0.71	–	0.308	–	0.348	0.31	–	0.394	0.476	0.423	0.422	–	0.632	0.85	0.92	0.847	0.854
Calu-6	–	–	–	–	–	–	–	–	–	–	–	–	–	–	–	0.954	1.22	1.03	1
SW 1573	0.454	0.367	0.365	0.406	0.36	0.471	0.437	0.509	0.24	0.17	0.266	0.205	0.236	0.468	0.349	1.19	1.25	1.22	1.1
RERF-LC-KJ	1.07	1.09	1.04	0.445	0.419	0.43	0.417	0.417	1.31	1.36	1.29	1.23	1.23	1.11	1.03	0.882	0.881	0.8	0.8
EMC-BAC-2	0.488	0.511	0.492	–	0.513	0.498	0.536	0.537	–	1.2	1.16	1.14	1.25	–	0.522	0.852	0.918	0.806	0.797
LK-2	0.69	0.709	0.729	–	0.449	0.639	0.594	0.301	–	0.208	0.176	0.168	0.219	0.615	0.803	0.861	0.696	0.54	0.82
NCI-H2126	0.354	0.361	0.361	0.489	0.521	0.537	0.53	0.587	0.93	0.928	0.903	0.846	0.946	0.337	0.322	0.766	0.888	0.718	0.729
NCI-H322M	0.478	0.482	0.55	0.844	0.866	0.779	0.854	0.791	0.956	0.954	0.871	0.945	0.844	0.495	0.522	0.61	0.659	0.518	0.636

Cell Line	relative viability ([1]; first compound 0.1 µM)	relative viability ([1]; first compound 0.3162 µM)	relative viability ([1]; first compound 1 µM)	relative viability ([2]; first compound 0.01 µM)	relative viability ([2]; first compound 0.03162 µM)	relative viability ([2]; first compound 0.1 µM)	relative viability ([2]; first compound 0.3162 µM)	relative viability ([2]; first compound 1 µM)	relative viability ([3]; first compound 0.01 µM)	relative viability ([3]; first compound 0.03162 µM)	relative viability ([3]; first compound 0.1 µM)	relative viability ([3]; first compound 0.3162 µM)	relative viability ([3]; first compound 1 µM)	relative viability ([1]; first compound 0.01 µM)	relative viability ([1]; first compound 0.03162 µM)	relative viability ([4]; first compound 0.006325 µM)	relative viability ([4]; first compound 0.06325 µM)	relative viability ([4]; first compound 0.2 µM)	relative viability ([4]; first compound 0.002 µM)
NCI-H1975	0.608	0.601	0.557	0.399	0.437	0.445	0.471	0.502	0.157	0.326	0.275	0.272	0.331	0.531	0.552	0.817	1.14	1.03	0.811
NCI-H2170	0.445	0.399	0.393	0.507	0.406	0.393	0.423	0.388	0.675	0.766	0.712	0.532	0.627	0.353	0.387	0.295	0.289	0.298	0.281
LU99A	0.447	0.444	0.416	0.725	0.943	0.796	0.923	0.945	0.245	0.226	0.244	0.279	0.258	–	0.39	1.13	0.951	0.868	0.98
NCI-H2405	0.535	0.519	0.583	0.368	0.399	0.426	0.419	0.448	0.728	0.837	0.821	0.815	0.73	0.467	0.531	1.03	1.08	0.877	0.928
NCI-H2009	0.185	0.271	0.258	0.504	0.47	0.451	0.453	0.388	1.04	0.989	0.988	0.955	0.854	0.222	0.218	0.887	1.08	0.946	0.865
HCC-15	0.729	0.752	0.788	0.476	0.507	0.498	0.519	0.505	0.146	0.242	0.366	0.2	0.498	0.7	0.708	0.916	0.922	0.901	0.797
HCC-44	0.943	0.982	0.948	0.216	0.213	0.256	0.234	0.213	1.11	1.07	1.07	1.04	1.12	0.921	0.932	0.903	1.12	1.06	0.969
COR-L23	0.353	0.316	0.317	0.44	0.459	0.41	0.463	0.493	0.644	0.791	0.72	0.654	0.785	0.297	0.323	0.931	0.914	0.781	0.79
HCC-78	0.4	0.462	0.432	0.531	0.696	0.626	0.635	0.622	–	–	–	–	–	0.465	0.511	0.709	0.597	0.63	0.74
NCI-H1299	–	–	–	–	–	–	–	–	–	–	–	–	–	–	–	0.968	0.979	0.934	0.956
LCLC-103H	0.495	0.439	0.5	0.247	0.338	0.344	0.344	0.342	0.861	1.02	1.03	0.937	1.05	0.409	0.517	–	–	–	–
ChaGo-K-1	0.973	0.927	0.873	0.474	0.428	0.535	0.547	0.495	0.632	0.595	0.586	0.492	0.574	0.949	0.927	–	–	–	–
SW 900	–	0.65	0.595	0.532	0.628	0.398	0.593	0.689	0.153	0.177	0.177	0.177	0.164	0.463	0.636	–	–	–	–
NCI-H1563	–	–	–	0.64	0.664	0.673	0.722	0.758	0.476	0.507	0.497	0.519	0.526	–	–	0.856	0.885	0.727	0.86
A549	–	–	–	–	0.169	0.178	0.142	0.18	–	–	–	–	–	–	–	1.03	1.05	0.88	0.946
NCI-H2342	0.496	0.489	0.515	0.501	0.635	0.538	0.572	0.569	0.671	0.736	0.612	0.759	0.588	0.538	0.501	–	–	–	–
NCI-H441	0.198	0.211	0.273	0.741	0.911	0.811	0.986	1.01	0.343	0.485	0.311	0.274	0.317	0.24	0.248	–	–	–	–
NCI-H1623	–	–	–	0.584	0.541	0.58	0.574	0.595	0.465	0.515	0.512	0.479	0.634	–	–	–	–	–	–
NCI-H522	1.05	0.887	0.883	0.532	0.618	0.71	0.7	0.65	–	0.912	1.13	1.06	1.07	0.973	0.97	–	–	–	–
IA-LM	–	–	–	–	–	–	–	–	–	–	–	–	–	–	–	0.67	0.77	0.721	0.897
EBC-1	–	–	–	–	–	–	–	–	–	–	–	–	–	–	–	0.233	0.225	0.227	0.2
